Tests used:
[1] = same transimination equilibrium: L1 (bis-hexylimine calix[4]arene) + diamine 3 = C1 + 2 hexylamine; conditions: the molecule shown is the open-chain precursor, CD3CN, 2.5 mM, 25.0 °C, 2 steps
[2] = reversible transimination ring closure of 1,3-distal diimine cone-calix[4]arene (tetrakis(2-ethoxyethoxy)) with alpha,omega-diaminoalkanes H2N(CH2)nNH2, displacing hexylamine chain stopper; no catalyst; thermodynamic equilibrium in dynamic library; conditions: the molecule shown is the open-chain precursor, CD3CN, 2.5 mM, 25.0 °C

CCCCCC/N=C/c1cc2c(OCCOCC)c(c1)Cc1cccc(c1OCCOCC)Cc1cc(/C=N/CCCN)cc(c1OCCOCC)Cc1cccc(c1OCCOCC)C2 [C1b (diamine 3b, n=3)]
ring closure, K ([1]; 18-membered ring): 0.9 M | ring closure, effective molarity ([2]; 18-membered ring): 0.5 M

CCCCCC/N=C/c1cc2c(OCCOCC)c(c1)Cc1cccc(c1OCCOCC)Cc1cc(/C=N/CCN)cc(c1OCCOCC)Cc1cccc(c1OCCOCC)C2 [C1a (diamine 3a, n=2)]
ring closure, K ([1]; 17-membered ring): 0.025 M | ring closure, effective molarity ([2]; 17-membered ring): 0.05 M

CCCCCC/N=C/c1cc2c(OCCOCC)c(c1)Cc1cccc(c1OCCOCC)Cc1cc(/C=N/CCCCCN)cc(c1OCCOCC)Cc1cccc(c1OCCOCC)C2 [C1d (diamine 3d, n=5)]
ring closure, K ([1]; 20-membered ring): 3 M | ring closure, effective molarity ([2]; 20-membered ring): 1.5 M

CCCCCC/N=C/c1cc2c(OCCOCC)c(c1)Cc1cccc(c1OCCOCC)Cc1cc(/C=N/CCCCCCN)cc(c1OCCOCC)Cc1cccc(c1OCCOCC)C2 [C1e (diamine 3e, n=6)]
ring closure, K ([1]; 21-membered ring): 0.026 M | ring closure, effective molarity ([2]; 21-membered ring): 0.01 M

CCCCCC/N=C/c1cc2c(OCCOCC)c(c1)Cc1cccc(c1OCCOCC)Cc1cc(/C=N/CCCCN)cc(c1OCCOCC)Cc1cccc(c1OCCOCC)C2 [C1c (diamine 3c, n=4)]
ring closure, K ([1]; 19-membered ring): 0.03 M | ring closure, effective molarity ([2]; 19-membered ring): 0.01 M

Source: PMC5424495
